Measurements reported in patent US20220363686A1 (AiCuris GmbH & Co. KG, priority 2018, published 2022).

Experiments:
[1] = tested on: HBV; experiment: Determination of HBV DNA from the supernatants of HepAD38 cells (anti-HBV activity); type: cell-based, hepatitis B virus; conditions: Hepatitis B virus, HePAD38, 144 h, HBV DNA in HepAD38 supernatant, day 6, qPCR; read-out: Cell Activity
Method in brief: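 EC50 derived by non-linear regression of relative HBV DNA copy numbers, measured by qPCR (plasmid standards) in day-6 filtered supernatants. Before this, HepAD38 cells were exposed to serial half-log compound dilutions without tetracycline, releasing viral expression; cultures kept at 37 °C, 5% CO2.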

[2] = Cell viability assay (AlamarBlue); conditions: human, HepAD38 cells
[3] = biological target: HBV core protein (C-terminal truncated core protein containing 149 amino acids of the N-terminal assembly domain) (UniProt P03146); experiment: Biochemical capsid assembly assay (fluorescence quenching); parameters: rows headed: Assembly Activity; other: BODIPY-FL labelled core protein, assembly started with NaCl, read after 6 min; conditions: read-out: Assembly Activity; BODIPY-FL labelled core protein, assembly started with NaCl, read after 6 min
Chain of HBV core protein (C-terminal truncated core protein containing 149 amino acids of the N-terminal assembly domain) (P03146 whole entry, the tested form may be a part): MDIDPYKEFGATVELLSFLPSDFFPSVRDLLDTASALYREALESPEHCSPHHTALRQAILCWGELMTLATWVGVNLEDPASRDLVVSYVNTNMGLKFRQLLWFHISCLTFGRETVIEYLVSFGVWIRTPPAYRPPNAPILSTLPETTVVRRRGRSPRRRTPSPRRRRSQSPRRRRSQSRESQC
Method in brief: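 N-terminal assembly domain (residues 1–149) plus C-terminal Cys150, E. coli-expressed, BODIPY-FL-maleimide labelled, used at 1.0–2.0 μM in 50 mM HEPES pH 7.5 with 0.5% DMSO. Assembly started with NaCl ([…]); fluorescence quenching (ex 477/em 525 nm) read after 6 min. 8-point compound series; EC50 by non-linear regression.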

Structure (SMILES)	EC50 [1] [µM]	CC50 at 6 days [2] [µM]	IC50 [3] [µM]
CCc1cccc2[nH]c(C(=O)N3CCn4ncc(C(=O)N(C)C5(CO)CC5)c4C3)cc12 [Example 95, 5-(4-ethyl-1H-indole-2-carbonyl)-N-[1-(hydroxymethyl)cyclopropyl]-N-methyl-4H,5H,6H,7H-pyrazolo[1,5-a]pyrazine-3-carboxamide]	< 1	> 10	< 5
CN(C(=O)c1cnn2c1CN(C(=O)c1cc3c(Cl)c(F)ccc3[nH]1)CC2)C1(CO)CC1 [Example 96, 5-(4-chloro-5-fluoro-1H-indole-2-carbonyl)-N-[1-(hydroxymethyl)cyclopropyl]-N-methyl-4H,5H,6H,7H-pyrazolo[1,5-a]pyrazine-3-carboxamide]	< 1	> 10	< 5
O=C(NC1(COC(F)F)CC1)c1cnn2c1CN(C(=O)c1cc3ccccc3[nH]1)CC2 [Example 97, N-{1-[(difluoromethoxy)methyl]cyclopropyl}-5-(1H-indole-2-carbonyl)-4H,5H,6H,7H-pyrazolo[1,5-a]pyrazine-3-carboxamide]	< 1	> 10	< 5
O=C(NC1(c2ccncc2)CC1)c1cnn2c1CN(C(=O)c1cc3ccccc3[nH]1)CC2 [Example 98, 5-(1H-indole-2-carbonyl)-N-[1-(pyridin-4-yl)cyclopropyl]-4H,5H,6H,7H-pyrazolo[1,5-a]pyrazine-3-carboxamide]	< 1	> 10	< 5
CNC(=O)c1cnn2c1CN(C(=O)c1cc3ccccc3[nH]1)CC2 [Example 100, 5-(1H-indole-2-carbonyl)-N-methyl-4H,5H,6H,7H-pyrazolo[1,5-a]pyrazine-3-carboxamide]	< 100	> 10	5 to 10
O=C(NC1(C(F)(F)F)CC1)c1cnn2c1CN(C(=O)c1cc3ccccc3[nH]1)CC2 [Example 101, 5-(1H-indole-2-carbonyl)-N-[1-(trifluoromethyl)cyclopropyl]-4H,5H,6H,7H-pyrazolo[1,5-a]pyrazine-3-carboxamide]	< 1	> 10	< 5
Cc1cc(F)cc2[nH]c(C(=O)N3CCn4ncc(C(=O)NC5(COC(F)F)CC5)c4C3)cc12 [Example 102, N-{1-[(difluoromethoxy)methyl]cyclopropyl}-5-(6-fluoro-4-methyl-1H-indole-2-carbonyl)-4H,5H,6H,7H-pyrazolo[1,5-a]pyrazine-3-carboxamide]	< 1	> 10	< 5
Cc1c(F)ccc2[nH]c(C(=O)N3CCn4ncc(C(=O)NC5(COC(F)F)CC5)c4C3)cc12 [Example 103, N-{1-[(difluoromethoxy)methyl]cyclopropyl}-5-(5-fluoro-4-methyl-1H-indole-2-carbonyl)-4H,5H,6H,7H-pyrazolo[1,5-a]pyrazine-3-carboxamide]	< 1	> 10	< 5
O=C(NC1(COC(F)F)CC1)c1cnn2c1CN(C(=O)c1cc3c(F)c(F)ccc3[nH]1)CC2 [Example 104, 5-(4,5-difluoro-1H-indole-2-carbonyl)-N-{1-[(difluoromethoxy)methyl]cyclopropyl}-4H,5H,6H,7H-pyrazolo[1,5-a]pyrazine-3-carboxamide]	< 1	> 10	< 5
O=C(NC1(COC(F)F)CC1)c1cnn2c1CN(C(=O)c1cc3c(Cl)cccc3[nH]1)CC2 [Example 105, 5-(4-chloro-1H-indole-2-carbonyl)-N-{1-[(difluoromethoxy)methyl]cyclopropyl}-4H,5H,6H,7H-pyrazolo[1,5-a]pyrazine-3-carboxamide]	< 1	> 10	< 5
O=C(NC1(C(F)(F)F)CCC1)c1cnn2c1CN(C(=O)c1cc3ccccc3[nH]1)CC2 [Example 106, 5-(1H-indole-2-carbonyl)-N-[1-(trifluoromethyl)cyclobutyl]-4H,5H,6H,7H-pyrazolo[1,5-a]pyrazine-3-carboxamide]	< 1	> 10	< 5
Cc1cc(F)cc2[nH]c(C(=O)N3CCn4ncc(C(=O)N5CCCOCC56CC6)c4C3)cc12 [Example 107, 4-[5-(6-fluoro-4-methyl-1H-indole-2-carbonyl)-4H,5H,6H,7H-pyrazolo[1,5-a]pyrazine-3-carbonyl]-8-oxa-4-azaspiro[2.6]nonane]	< 1	> 10	< 5
Cc1c(F)ccc2[nH]c(C(=O)N3CCn4ncc(C(=O)N5CCCOCC56CC6)c4C3)cc12 [Example 108, 4-[5-(5-fluoro-4-methyl-1H-indole-2-carbonyl)-4H,5H,6H,7H-pyrazolo[1,5-a]pyrazine-3-carbonyl]-8-oxa-4-azaspiro[2.6]nonane]	< 1	> 10	< 5
O=C(c1cc2c(F)c(F)ccc2[nH]1)N1CCn2ncc(C(=O)N3CCCOCC34CC4)c2C1 [Example 109, 4-[5-(4,5-difluoro-1H-indole-2-carbonyl)-4H,5H,6H,7H-pyrazolo[1,5-a]pyrazine-3-carbonyl]-8-oxa-4-azaspiro[2.6]nonane]	< 1	> 10	< 5
O=C(c1cc2c(Cl)cccc2[nH]1)N1CCn2ncc(C(=O)N3CCCOCC34CC4)c2C1 [Example 110, 4-[5-(4-chloro-1H-indole-2-carbonyl)-4H,5H,6H,7H-pyrazolo[1,5-a]pyrazine-3-carbonyl]-8-oxa-4-azaspiro[2.6]nonane]	< 1	> 10	< 5
O=C(c1cc2cc(Cl)c(F)cc2[nH]1)N1CCn2ncc(C(=O)N3CCCOCC34CC4)c2C1 [Example 111, 4-[5-(5-chloro-6-fluoro-1H-indole-2-carbonyl)-4H,5H,6H,7H-pyrazolo[1,5-a]pyrazine-3-carbonyl]-8-oxa-4-azaspiro[2.6]nonane]	< 1	> 10	< 5
Cc1cc(F)cc2[nH]c(C(=O)N3CCn4ncc(C(=O)N[C@H](C)C(F)(F)F)c4C3)cc12 [Example 112, 5-(6-fluoro-4-methyl-1H-indole-2-carbonyl)-N-[(2R)-1,1,1-trifluoropropan-2-yl]-4H,5H,6H,7H-pyrazolo[1,5-a]pyrazine-3-carboxamide]	< 1	> 10	< 5
Cc1c(F)ccc2[nH]c(C(=O)N3CCn4ncc(C(=O)N[C@H](C)C(F)(F)F)c4C3)cc12 [Example 113, 5-(5-fluoro-4-methyl-1H-indole-2-carbonyl)-N-[(2R)-1,1,1-trifluoropropan-2-yl]-4H,5H,6H,7H-pyrazolol[1,5-a]pyrazine-3-carboxamide]	< 1	> 10	< 5
C[C@@H](NC(=O)c1cnn2c1CN(C(=O)c1cc3c(F)c(F)ccc3[nH]1)CC2)C(F)(F)F [Example 114, 5-(4,5-difluoro-1H-indole-2-carbonyl)-N-[(2R)-1,1,1-trifluoropropan-2-yl]-4H,5H,6H,7H-pyrazolo[1,5-a]pyrazine-3-carboxamide]	< 1	> 10	< 5
C[C@@H](NC(=O)c1cnn2c1CN(C(=O)c1cc3c(Cl)cccc3[nH]1)CC2)C(F)(F)F [Example 115, 5-(4-chloro-1H-indole-2-carbonyl)-N-[(2R)-1,1,1-trifluoropropan-2-yl]-4H,5H,6H,7H-pyrazolo[1,5-a]pyrazine-3-carboxamide]	< 1	> 10	< 5
C[C@@H](NC(=O)c1cnn2c1CN(C(=O)c1cc3cc(Cl)c(F)cc3[nH]1)CC2)C(F)(F)F [Example 116, 5-(5-chloro-6-fluoro-1H-indole-2-carbonyl)-N-[(2R)-1,1,1-trifluoropropan-2-yl]-4H,5H,6H,7H-pyrazolo[1,5-a]pyrazine-3-carboxamide]	< 1	> 10	< 5
O=C(c1cc2cc(F)c(Cl)cc2[nH]1)N1CCn2ncc(C(=O)N3CCC(O)CC34CC4)c2C1 (stereo not drawn) [Example 117, 4-[5-(6-chloro-5-fluoro-1H-indole-2-carbonyl)-4H,5H,6H,7H-pyrazolo[1,5-a]pyrazine-3-carbonyl]-4-azaspiro[2.5]octan-7-ol]	< 1	> 10	< 5
O=C(c1cc2c(Cl)cccc2[nH]1)N1CCn2ncc(C(=O)N3CCC(O)CC34CC4)c2C1 (stereo not drawn) [Example 118, 4-[5-(4-chloro-1H-indole-2-carbonyl)-4H,5H,6H,7H-pyrazolo[1,5-a]pyrazine-3-carbonyl]-4-azaspiro[2.5]octan-7-ol]	< 1	> 10	< 5
O=C(c1cc2c(F)c(F)ccc2[nH]1)N1CCn2ncc(C(=O)N3CCC(O)CC34CC4)c2C1 (stereo not drawn) [Example 119, 4-[5-(4,5-difluoro-1H-indole-2-carbonyl)-4H,5H,6H,7H-pyrazolo[1,5-a]pyrazine-3-carbonyl]-4-azaspiro[2.5]octan-7-ol]	< 1	> 10	< 5
Cc1c(F)ccc2[nH]c(C(=O)N3CCn4ncc(C(=O)N5CCC(O)CC56CC6)c4C3)cc12 (stereo not drawn) [Example 120, 4-[5-(5-fluoro-4-methyl-1H-indole-2-carbonyl)-4H,5H,6H,7H-pyrazolo[1,5-a]pyrazine-3-carbonyl]-4-azaspiro[2.5]octan-7-ol]	< 1	> 10	< 5
